{"source": "patent US20100272680A1", "about": "“Piperidinyl Cyclic Amido Antiviral Agents” (priority 2009, published 2010)", "key": {"HCV Genotype 1A Replicon": {"test_system": "HCV Genotype 1A Replicon", "test": "Replicon assay, genotype 1a subgenomic replicon, luciferase readout", "type": "cell-based", "conditions": "Hepatitis C virus, 48 h, Table 3; luciferase activity after 48 hours", "experimental": "(§1) Compounds were assayed for activity against HCV using the genotype 1a and 1b subgenomic replicon model systems. Stable cell lines bearing the genotype 1a and 1b replicons were used for screening of compounds. Both replicons are bicistonic and contain the firefly luciferase gene. The ET cell line is stably transfected with RNA transcripts harboring a I389luc-ubi-neo/NS3-3′/ET replicon with firefly luciferase-ubiquitin-neomycin phosphotransferase fusion protein and EMCV-IRES driven NS3-5B polyprotein containing the cell culture adaptive mutations (E1202G; T12801; K1846T) (Krieger at al, 2001 and unpublished). The genotype 1a replicon is a stable cell line licensed from Apath LLC, modified to contain the firefly luciferase gene. The cells were grown in DMEM, supplemented with 10% fetal calf serum, 2 mM Glutamine, Penicillin (100 IU/mL)/Streptomycin (100 μg/mL), 1× nonessential amino acids, and 250-500 μg/mL G418 (“Geneticin”). They were all available through Life Technologies (Bethesda, Md.). The cells were plated at 0.5×10^4 cells/well in 384 well plates containing compounds. The final concentration of compounds ranged between 0.03 μM to 50 μm and the final DMSO concentration of 0.5-1%.\n(§2) Luciferase activity was measured 48 hours later by adding a Steady glo (Promega, Madison, Wis.). Percent inhibition of replication data was plotted relative to no compound control. Under the same condition, cytotoxicity of the compounds was determined using cell titer glo (Promega, Madison, Wis). IC50s were determined from a 10 point dose response curve using 3-4-fold serial dilution for each compound, which spans a concentration range >1000 fold. BioAssay determines the level of inhibition for each compound by normalizing cross-talk corrected plate values against the negative […] controls to determine Percent Inhibition:\n(§3) These normalized values are exported to EC50 where they are plotted against the molar compound concentrations using the standard four parameter logistic equation: […]\n(§4) Some EC50 measurements were repeated a second time and for both 1A and 1B genotypes after those reported in Table 2 for compounds 101-108 and the repeated data was reported in Table 3."}, "HCV Genotype 1B Replicon": {"test_system": "HCV Genotype 1B Replicon", "test": "Replicon assay, genotype 1b subgenomic replicon (ET cell line), luciferase readout", "type": "cell-based", "conditions": "Hepatitis C virus, 48 h, Table 3; luciferase activity after 48 hours", "experimental": "as §1, §2, §3, §4"}}, "data": [{"smiles": "O=C(c1nc2c(C(F)(F)F)cc(-c3ccoc3)cn2c1Cl)N1CCC(N2C(=O)CNC2=O)CC1", "note": "[Compound 175, 3-(1-{[3-chloro-6-(3-furanyl)-8-(trifluoromethyl)imidazo[1,2-a]pyridin-2-yl]carbonyl}-4-piperidinyl)-2,4-imidazolidinedione]", "values": [{"measurement": "EC50", "setting": "HCV Genotype 1A Replicon", "value": 2.57, "unit": "µM"}, {"measurement": "EC50", "setting": "HCV Genotype 1B Replicon", "value": 0.14, "unit": "µM"}]}, {"smiles": "CC(C)c1cc(C(F)(F)F)c2nc(C(=O)N3CCC(N4CCOC4=O)CC3)cn2c1", "note": "[Compound 196, 3-(1-{[6-(1-methylethyl)-8-(trifluoromethyl)imidazo[1,2-a]pyridin-2-yl]carbonyl}-4-piperidinyl)-1,3-oxazolidin-2-one]", "values": [{"measurement": "EC50", "setting": "HCV Genotype 1A Replicon", "value": 1.19, "unit": "µM"}, {"measurement": "EC50", "setting": "HCV Genotype 1B Replicon", "value": 0.96, "unit": "µM"}]}, {"smiles": "COc1cc(C(F)(F)F)c2nc(C(=O)N3CCC(N4CCOC4=O)CC3)c(Cl)n2c1", "note": "[Compound 132, 3-(1-{[3-chloro-6-(methyloxy)-8-(trifluoromethyl)imidazo[1,2-a]pyridin-2-yl]carbonyl}-4-piperidinyl)-1,3-oxazolidin-2-one]", "values": [{"measurement": "EC50", "setting": "HCV Genotype 1A Replicon", "value": 0.13, "unit": "µM"}, {"measurement": "EC50", "setting": "HCV Genotype 1B Replicon", "value": 0.21, "unit": "µM"}]}, {"smiles": "O=C(c1nc2c(C(F)(F)F)cc(C3CCCC3)cn2c1Cl)N1CCC(N2CCOC2=O)CC1", "note": "[Compound 127, 3-(1-{[3-chloro-6-cyclopentyl-8-(trifluoromethyl)imidazo[1,2-a]pyridin-2-yl]carbonyl}-4-piperidinyl)-1,3-oxazolidin-2-one]", "values": [{"measurement": "EC50", "setting": "HCV Genotype 1A Replicon", "value": 0.01, "unit": "µM"}, {"measurement": "EC50", "setting": "HCV Genotype 1B Replicon", "value": 0.17, "unit": "µM"}]}, {"smiles": "O=C(c1nc2c(C(F)(F)F)cc(-c3ccoc3)cn2c1Cl)N1CCC(n2ccoc2=O)CC1", "note": "[Compound 186, 3-(1-{[3-chloro-6-(3-furanyl)-8-(trifluoromethyl)imidazo[1,2-a]pyridin-2-yl]carbonyl}-4-piperidinyl)-1,3-oxazol-2(3H)-one]", "values": [{"measurement": "EC50", "setting": "HCV Genotype 1A Replicon", "value": 0.01, "unit": "µM"}, {"measurement": "EC50", "setting": "HCV Genotype 1B Replicon", "value": 0.02, "unit": "µM"}]}, {"smiles": "C[C@@H]1OC(=O)N(C2CCN(C(=O)c3nc4c(C(F)(F)F)cc(-c5ccoc5)cn4c3Cl)CC2)C1=O", "note": "[Compound 188, (5S)-3-(1-{[3-chloro-6-(3-furanyl)-8-(trifluoromethyl)imidazo[1,2-a]pyridin-2-yl]carbonyl}-4-piperidinyl)-5-methyl-1,3-oxazolidine-2,4-dione]", "values": [{"measurement": "EC50", "setting": "HCV Genotype 1A Replicon", "value": 0.19, "unit": "µM"}, {"measurement": "EC50", "setting": "HCV Genotype 1B Replicon", "value": 0.06, "unit": "µM"}]}, {"smiles": "CC(C)Cc1cc(C(F)(F)F)c2nc(C(=O)N3CCC(N4C(=O)COC4=O)CC3)c(Cl)n2c1", "note": "[Compound 140, 3-(1-{[3-chloro-6-(2-methylpropyl)-8-(trifluoromethyl)imidazo[1,2-a]pyridin-2-yl]carbonyl}-4-piperidinyl)-1,3-oxazolidine-2,4-dione]", "values": [{"measurement": "EC50", "setting": "HCV Genotype 1A Replicon", "value": 0.05, "unit": "µM"}, {"measurement": "EC50", "setting": "HCV Genotype 1B Replicon", "value": 0.15, "unit": "µM"}]}, {"smiles": "CCCCc1cc(C(F)(F)F)c2nc(C(=O)N3CCC(N4CCOC4=O)CC3)c(Cl)n2c1", "note": "[Compound 131]", "values": [{"measurement": "EC50", "setting": "HCV Genotype 1A Replicon", "value": 0.01, "unit": "µM"}, {"measurement": "EC50", "setting": "HCV Genotype 1B Replicon", "value": 0.7, "unit": "µM"}]}, {"smiles": "O=C(c1nc2c(C(F)(F)F)cc(-c3cn[nH]c3)cn2c1Cl)N1CCC(N2C(=O)COC2=O)CC1", "note": "[Compound 179, 3-(1-{[3-chloro-6-(1H-pyrazol-4-yl)-8-(trifluoromethyl)imidazo[1,2-a]pyridin-2-yl]carbonyl}-4-piperidinyl)-1,3-oxazolidine-2,4-dione]", "values": [{"measurement": "EC50", "setting": "HCV Genotype 1A Replicon", "value": 0.06, "unit": "µM"}, {"measurement": "EC50", "setting": "HCV Genotype 1B Replicon", "value": 0.36, "unit": "µM"}]}, {"smiles": "C[C@H]1OC(=O)N(C2CCN(C(=O)c3nc4c(C(F)(F)F)cc(C5CC5)cn4c3Cl)CC2)C1=O", "note": "[Compound 192, (5R)-3-(1-{[3-chloro-6-cyclopropyl-8-(trifluoromethyl)imidazo[1,2-a]pyridin-2-yl]carbonyl}-4-piperidinyl)-5-methyl-1,3-oxazolidine-2,4-dione]", "values": [{"measurement": "EC50", "setting": "HCV Genotype 1A Replicon", "value": 0.28, "unit": "µM"}, {"measurement": "EC50", "setting": "HCV Genotype 1B Replicon", "value": 0.02, "unit": "µM"}]}, {"smiles": "O=C(c1nc2c(C(F)(F)F)cc(C3CC3)cn2c1Cl)N1CCC(N2CC(O)CC2=O)CC1", "note": "(centres unmarked) [Compound 163, 1-(1-{[3-chloro-6-cyclopropyl-8-(trifluoromethyl)imidazo[1,2-a]pyridin-2-yl]carbonyl}-4-piperidinyl)-4-hydroxy-2-pyrrolidinone]", "values": [{"measurement": "EC50", "setting": "HCV Genotype 1A Replicon", "value": 0.38, "unit": "µM"}, {"measurement": "EC50", "setting": "HCV Genotype 1B Replicon", "value": 0.08, "unit": "µM"}]}, {"smiles": "O=C(c1nc2c(C(F)(F)F)cc(-c3cn[nH]n3)cn2c1Cl)N1CCC(N2CCOC2=O)CC1", "note": "[Compound 148, 3-(1-{[3-chloro-6-(2H-1,2,3-triazol-4-yl)-8-(trifluoromethyl)imidazo[1,2-a]pyridin-2-yl]carbonyl}-4-piperidinyl)-1,3-oxazolidin-2-one]", "values": [{"measurement": "EC50", "setting": "HCV Genotype 1A Replicon", "value": 0.22, "unit": "µM"}, {"measurement": "EC50", "setting": "HCV Genotype 1B Replicon", "value": 0.54, "unit": "µM"}]}, {"smiles": "COc1ccccc1-c1cc(C(F)(F)F)c2nc(C(=O)N3CCC(N4CCOC4=O)CC3)c(Cl)n2c1", "note": "[Compound 116]", "values": [{"measurement": "EC50", "setting": "HCV Genotype 1A Replicon", "value": 0.36, "unit": "µM"}, {"measurement": "EC50", "setting": "HCV Genotype 1B Replicon", "value": 7.41, "unit": "µM"}]}, {"smiles": "O=C(c1nc2c(C(F)(F)F)cc(-c3ccoc3)cn2c1Cl)N1CC[C@H](N2C(=O)COC2=O)[C@@H](O)C1", "note": "(racemic) [Compound 223, (±) trans-3-(1-{[3-chloro-6-(3-furanyl)-8-(trifluoromethyl)imidazo[1,2-a]pyridin-2-yl]carbonyl}-3-hydroxy-4-piperidinyl)-1,3-oxazolidine-2,4-dione]", "values": [{"measurement": "EC50", "setting": "HCV Genotype 1A Replicon", "value": 1.58, "unit": "µM"}, {"measurement": "EC50", "setting": "HCV Genotype 1B Replicon", "value": 0.81, "unit": "µM"}]}, {"smiles": "CC1(N2CCOC2=O)CCN(C(=O)c2nc3c(C(F)(F)F)cc(-c4ccoc4)cn3c2Cl)CC1", "note": "[Compound 183, 3-(1-{[3-chloro-6-(3-furanyl)-8-(trifluoromethyl)imidazo[1,2-a]pyridin-2-yl]carbonyl}-4-methyl-4-piperidinyl)-1,3-oxazolidin-2-one]", "values": [{"measurement": "EC50", "setting": "HCV Genotype 1A Replicon", "value": "≥ 5.01", "unit": "µM"}, {"measurement": "EC50", "setting": "HCV Genotype 1B Replicon", "value": 4.47, "unit": "µM"}]}, {"smiles": "C[C@H]1COC(=O)N1C1CCN(C(=O)c2nc3c(C(F)(F)F)cc(-c4ccoc4)cn3c2Cl)CC1", "note": "[Compound 180, (4S)-3-(1-{[3-chloro-6-(3-furanyl)-8-(trifluoromethyl)imidazo[1,2-a]pyridin-2-yl]carbonyl}-4-piperidinyl)-4-methyl-1,3-oxazolidin-2-one]", "values": [{"measurement": "EC50", "setting": "HCV Genotype 1A Replicon", "value": 1.62, "unit": "µM"}, {"measurement": "EC50", "setting": "HCV Genotype 1B Replicon", "value": 2.85, "unit": "µM"}]}, {"smiles": "O=C(c1nc2c(C(F)(F)F)cc(Br)cn2c1Cl)N1CC[C@H](N2CCCC2=O)[C@H](O)C1", "note": "(racemic) [Compound 229, (±) cis-1-(1-{[6-bromo-3-chloro-8-(trifluoromethyl)imidazo[1,2-a]pyridin-2-yl]carbonyl}-3-hydroxy-4-piperidinyl)-2-pyrrolidinone]", "values": [{"measurement": "EC50", "setting": "HCV Genotype 1A Replicon", "value": 0.96, "unit": "µM"}, {"measurement": "EC50", "setting": "HCV Genotype 1B Replicon", "value": 0.35, "unit": "µM"}]}, {"smiles": "O=C(c1nc2c(C(F)(F)F)cc(C3CC3)cn2c1Cl)N1CC[C@H](N2CCCC2=O)[C@H](O)C1", "note": "(racemic) [Compound 228, (±) cis-1-(1-{[3-chloro-6-cyclopropyl-8-(trifluoromethyl)imidazo[1,2-a]pyridin-2-yl]carbonyl}-3-hydroxy-4-piperidinyl)-2-pyrrolidinone]", "values": [{"measurement": "EC50", "setting": "HCV Genotype 1A Replicon", "value": 0.25, "unit": "µM"}, {"measurement": "EC50", "setting": "HCV Genotype 1B Replicon", "value": 0.09, "unit": "µM"}]}, {"smiles": "O=C(c1nc2c(C(F)(F)F)cc(-c3ccoc3)cn2c1Br)N1CCC(N2CCOC2=O)CC1", "note": "[Compound 158, 3-(1-{[3-bromo-6-(3-furanyl)-8-(trifluoromethyl)imidazo[1,2-a]pyridin-2-yl]carbonyl}-4-piperidinyl)-1,3-oxazolidin-2-one]", "values": [{"measurement": "EC50", "setting": "HCV Genotype 1A Replicon", "value": 0.01, "unit": "µM"}, {"measurement": "EC50", "setting": "HCV Genotype 1B Replicon", "value": 0.04, "unit": "µM"}]}, {"smiles": "O=C(c1nc2c(C(F)(F)F)cc(-c3ccc(O)cc3)cn2c1Cl)N1CCC(N2CCOC2=O)CC1", "note": "[Compound 123]", "values": [{"measurement": "EC50", "setting": "HCV Genotype 1A Replicon", "value": 0.03, "unit": "µM"}, {"measurement": "EC50", "setting": "HCV Genotype 1B Replicon", "value": 0.38, "unit": "µM"}]}, {"smiles": "O=C(c1nc2c(C(F)(F)F)cc(-c3ccoc3)cn2c1Br)N1CCC(N2C(=O)COC2=O)CC1", "note": "[Compound 159, 3-(1-{[3-bromo-6-(3-furanyl)-8-(trifluoromethyl)imidazo[1,2-a]pyridin-2-yl]carbonyl}-4-piperidinyl)-1,3-oxazolidine-2,4-dione]", "values": [{"measurement": "EC50", "setting": "HCV Genotype 1A Replicon", "value": 0.03, "unit": "µM"}, {"measurement": "EC50", "setting": "HCV Genotype 1B Replicon", "value": 0.03, "unit": "µM"}]}, {"smiles": "CC(C)c1cc(C(F)(F)F)c2nc(C(=O)N3CCC(N4CCOC4=O)CC3)c(Cl)n2c1", "note": "[Compound 154, 3-(1-{[3-chloro-6-(1-methylethyl)-8-(trifluoromethyl)imidazo[1,2-a]pyridin-2-yl]carbonyl}-4-piperidinyl)-1,3-oxazolidin-2-one]", "values": [{"measurement": "EC50", "setting": "HCV Genotype 1A Replicon", "value": 0.02, "unit": "µM"}, {"measurement": "EC50", "setting": "HCV Genotype 1B Replicon", "value": 0.02, "unit": "µM"}]}]}
